Assay results as given in ChEMBL document CHEMBL5291721, “A preclinical secondary pharmacology resource illuminates target-adverse drug reaction associations of marketed drugs” (Nat Commun, 2023).

How the values were obtained:
[1] = biological target: T1, Muscarinic acetylcholine receptor M1 (Homo sapiens, UniProt P11229); assay type: functional, cell-based
T1 sequence (P11229 whole entry): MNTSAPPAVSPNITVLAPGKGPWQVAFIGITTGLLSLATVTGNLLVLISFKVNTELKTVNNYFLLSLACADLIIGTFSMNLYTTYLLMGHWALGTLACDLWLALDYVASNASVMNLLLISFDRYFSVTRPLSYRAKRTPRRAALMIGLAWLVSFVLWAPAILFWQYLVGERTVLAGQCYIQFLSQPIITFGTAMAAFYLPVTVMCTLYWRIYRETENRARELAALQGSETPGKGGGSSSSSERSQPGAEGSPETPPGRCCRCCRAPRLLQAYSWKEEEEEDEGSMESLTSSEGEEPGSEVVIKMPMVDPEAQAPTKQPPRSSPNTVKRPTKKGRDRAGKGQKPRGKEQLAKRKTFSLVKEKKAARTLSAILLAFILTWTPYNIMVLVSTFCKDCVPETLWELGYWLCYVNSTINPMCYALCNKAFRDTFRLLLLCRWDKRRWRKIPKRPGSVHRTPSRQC

[2] = biological target: 3',5'-cyclic-AMP phosphodiesterase 4D (Homo sapiens, UniProt Q08499); assay type: functional
[3] = biological target: T2, Alpha-2B adrenergic receptor (Homo sapiens, UniProt P18089)
T2 sequence (P18089 whole entry): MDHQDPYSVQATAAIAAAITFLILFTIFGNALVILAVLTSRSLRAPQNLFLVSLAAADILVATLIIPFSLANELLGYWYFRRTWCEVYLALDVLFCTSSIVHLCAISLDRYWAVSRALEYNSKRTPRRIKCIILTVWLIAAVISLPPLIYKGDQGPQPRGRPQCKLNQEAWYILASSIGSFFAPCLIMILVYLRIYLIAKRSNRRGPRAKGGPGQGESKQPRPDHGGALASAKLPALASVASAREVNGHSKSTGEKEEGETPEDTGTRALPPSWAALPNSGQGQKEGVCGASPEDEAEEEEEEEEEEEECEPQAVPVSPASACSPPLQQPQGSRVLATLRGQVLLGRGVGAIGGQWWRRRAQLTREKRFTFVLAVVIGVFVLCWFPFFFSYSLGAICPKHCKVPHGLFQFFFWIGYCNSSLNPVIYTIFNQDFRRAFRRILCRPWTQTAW

[4] = biological target: T3, Alpha-2C adrenergic receptor (Homo sapiens, UniProt P18825); assay type: functional
T3 sequence (P18825 whole entry): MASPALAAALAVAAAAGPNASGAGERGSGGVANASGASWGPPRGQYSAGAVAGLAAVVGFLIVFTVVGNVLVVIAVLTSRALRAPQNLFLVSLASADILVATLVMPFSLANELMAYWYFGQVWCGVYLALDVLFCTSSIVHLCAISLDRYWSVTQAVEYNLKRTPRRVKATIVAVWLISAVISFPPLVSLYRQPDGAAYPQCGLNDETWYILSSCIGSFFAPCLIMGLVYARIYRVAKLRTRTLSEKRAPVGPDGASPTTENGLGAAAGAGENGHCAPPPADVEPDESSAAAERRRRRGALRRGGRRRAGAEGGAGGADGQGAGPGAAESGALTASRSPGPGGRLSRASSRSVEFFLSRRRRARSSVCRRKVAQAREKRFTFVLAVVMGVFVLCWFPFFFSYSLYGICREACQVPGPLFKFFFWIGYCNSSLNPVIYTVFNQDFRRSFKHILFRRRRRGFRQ

[5] = biological target: Growth hormone secretagogue receptor type 1 (Homo sapiens, UniProt Q92847)
[6] = biological target: Glutamate receptor ionotropic, NMDA 1 (Rattus norvegicus, UniProt P35439)
[7] = biological target: 5-hydroxytryptamine receptor 2B (Homo sapiens, UniProt P41595); assay type: functional, cell-based
[8] = biological target: Sodium-dependent noradrenaline transporter (Homo sapiens, UniProt P23975)
Mu-type opioid receptor = Mu-type opioid receptor (Homo sapiens, UniProt P35372)
Note: assay procedure not described here.

3',5'-cyclic-AMP phosphodiesterase 4D, sequence (Q08499 whole entry): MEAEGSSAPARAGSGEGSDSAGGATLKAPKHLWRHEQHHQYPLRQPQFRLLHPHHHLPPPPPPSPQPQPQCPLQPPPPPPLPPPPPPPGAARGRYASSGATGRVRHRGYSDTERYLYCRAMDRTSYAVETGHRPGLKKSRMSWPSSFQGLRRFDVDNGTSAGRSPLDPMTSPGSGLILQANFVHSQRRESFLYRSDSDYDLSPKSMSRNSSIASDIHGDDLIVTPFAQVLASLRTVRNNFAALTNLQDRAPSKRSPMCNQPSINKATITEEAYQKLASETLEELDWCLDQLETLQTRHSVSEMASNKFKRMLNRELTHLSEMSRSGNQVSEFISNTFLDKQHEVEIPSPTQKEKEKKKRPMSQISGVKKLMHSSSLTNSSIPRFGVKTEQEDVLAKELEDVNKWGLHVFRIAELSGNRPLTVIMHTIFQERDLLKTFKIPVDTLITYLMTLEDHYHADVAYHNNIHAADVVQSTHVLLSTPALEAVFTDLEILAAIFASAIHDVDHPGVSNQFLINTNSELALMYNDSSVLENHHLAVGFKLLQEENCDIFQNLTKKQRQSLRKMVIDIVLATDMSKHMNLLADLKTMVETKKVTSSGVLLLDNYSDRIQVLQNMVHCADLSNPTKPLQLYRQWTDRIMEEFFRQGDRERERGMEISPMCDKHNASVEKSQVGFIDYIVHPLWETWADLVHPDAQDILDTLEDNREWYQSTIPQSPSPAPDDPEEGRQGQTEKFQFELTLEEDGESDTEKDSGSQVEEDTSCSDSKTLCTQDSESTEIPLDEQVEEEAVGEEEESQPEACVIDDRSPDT
Sodium-dependent noradrenaline transporter, sequence (P23975 whole entry): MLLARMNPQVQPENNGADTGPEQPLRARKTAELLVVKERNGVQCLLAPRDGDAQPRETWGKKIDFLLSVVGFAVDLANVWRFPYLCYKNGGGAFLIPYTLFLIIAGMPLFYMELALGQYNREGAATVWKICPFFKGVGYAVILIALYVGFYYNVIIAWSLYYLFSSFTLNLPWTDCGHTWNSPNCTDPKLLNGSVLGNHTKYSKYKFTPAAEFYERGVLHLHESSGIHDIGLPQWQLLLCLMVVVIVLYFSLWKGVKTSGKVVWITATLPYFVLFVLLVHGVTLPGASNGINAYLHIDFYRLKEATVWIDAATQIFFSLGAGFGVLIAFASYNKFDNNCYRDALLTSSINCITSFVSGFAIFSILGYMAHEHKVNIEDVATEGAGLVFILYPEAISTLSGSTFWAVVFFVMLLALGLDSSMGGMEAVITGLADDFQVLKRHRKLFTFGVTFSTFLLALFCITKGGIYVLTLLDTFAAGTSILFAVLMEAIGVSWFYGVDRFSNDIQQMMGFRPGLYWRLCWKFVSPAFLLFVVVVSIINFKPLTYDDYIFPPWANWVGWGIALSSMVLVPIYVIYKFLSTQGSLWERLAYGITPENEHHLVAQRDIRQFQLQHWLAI
5-hydroxytryptamine receptor 2B, sequence (P41595 whole entry): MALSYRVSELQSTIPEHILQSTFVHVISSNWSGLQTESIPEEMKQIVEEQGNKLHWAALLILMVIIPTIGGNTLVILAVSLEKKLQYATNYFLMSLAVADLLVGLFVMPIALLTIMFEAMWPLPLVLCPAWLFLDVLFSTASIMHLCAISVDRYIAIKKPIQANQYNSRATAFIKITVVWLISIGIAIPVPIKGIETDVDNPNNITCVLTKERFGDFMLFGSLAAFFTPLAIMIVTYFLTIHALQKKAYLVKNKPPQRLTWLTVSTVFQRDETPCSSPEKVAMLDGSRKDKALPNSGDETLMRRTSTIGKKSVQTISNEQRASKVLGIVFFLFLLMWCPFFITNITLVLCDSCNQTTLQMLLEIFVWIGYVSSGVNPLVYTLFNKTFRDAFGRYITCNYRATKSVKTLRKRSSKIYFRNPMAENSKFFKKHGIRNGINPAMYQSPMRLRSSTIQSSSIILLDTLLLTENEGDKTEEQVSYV
Growth hormone secretagogue receptor type 1, sequence (Q92847 whole entry): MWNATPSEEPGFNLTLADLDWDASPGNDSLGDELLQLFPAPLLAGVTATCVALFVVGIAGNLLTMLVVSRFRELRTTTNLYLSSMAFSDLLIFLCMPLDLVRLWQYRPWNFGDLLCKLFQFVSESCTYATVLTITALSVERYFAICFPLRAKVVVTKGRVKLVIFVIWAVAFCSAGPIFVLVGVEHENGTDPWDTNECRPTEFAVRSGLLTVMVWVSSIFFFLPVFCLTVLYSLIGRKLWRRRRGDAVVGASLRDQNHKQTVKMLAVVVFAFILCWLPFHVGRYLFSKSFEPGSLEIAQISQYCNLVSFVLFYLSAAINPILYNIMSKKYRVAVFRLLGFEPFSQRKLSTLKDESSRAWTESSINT
Mu-type opioid receptor, sequence (P35372 whole entry): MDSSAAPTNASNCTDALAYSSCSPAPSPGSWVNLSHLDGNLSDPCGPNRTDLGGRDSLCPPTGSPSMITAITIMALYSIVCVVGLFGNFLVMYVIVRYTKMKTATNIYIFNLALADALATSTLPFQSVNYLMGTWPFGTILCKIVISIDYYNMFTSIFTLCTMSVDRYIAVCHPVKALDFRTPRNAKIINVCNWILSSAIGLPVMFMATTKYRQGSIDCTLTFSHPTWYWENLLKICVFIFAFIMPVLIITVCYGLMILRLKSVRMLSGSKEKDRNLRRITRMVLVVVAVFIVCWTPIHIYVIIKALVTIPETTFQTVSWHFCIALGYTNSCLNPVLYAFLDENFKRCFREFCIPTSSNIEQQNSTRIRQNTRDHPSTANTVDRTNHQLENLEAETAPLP

| Structure (SMILES) | AC50 [1] [µM] | further results |
| --- | --- | --- |
| Cc1cc2c(cc1S(N)(=O)=O)S(=O)(=O)CCC2 | > 30 | – |
| C[C@H](N[C@@H](CCc1ccccc1)C(=O)O)C(=O)N1Cc2ccccc2C[C@H]1C(=O)O | > 30 | – |
| O=C(O)[C@@H]1C[C@@H](O)CN1 | > 30 | – |
| CC1(C)S[C@@H]2[C@H](/N=C/N3CCCCCC3)C(=O)N2[C@H]1C(=O)O [AMDINOCILLIN] | > 30 | – |
| CC(=O)[C@]1(N)Cc2c(O)c3c(c(O)c2[C@@H](O[C@H]2C[C@H](O)[C@H](O)CO2)C1)C(=O)c1ccccc1C3=O [AMRUBICIN] | 18.4 | – |
| NC(=O)[C@@H]1CC[C@@H]2CN1C(=O)N2OS(=O)(=O)O [AVIBACTAM] | > 30 | – |
| CC(C)(C)NC(=O)N[C@H](C(=O)N1C[C@H]2[C@@H]([C@H]1C(=O)NC(CC1CCC1)C(=O)C(N)=O)C2(C)C)C(C)(C)C (some centres not stated) [BOCEPREVIR] | > 30 | – |
| Cc1ncc2c(c1O)COC2c1ccc(Cl)cc1 (configuration not stated) [CICLETANINE] | > 30 | – |
| Cc1cn([C@H]2O[C@@H](CO)[C@H](O)[C@H]2F)c(=O)[nH]c1=O [CLEVUDINE] | > 30 | – |
| N#Cc1ccc(Oc2ccc3c(c2)COB3O)cc1 [CRISABOROLE] | > 30 | AC50 [2]: 0.8 µM |
| CC(=O)[C@H]1CC[C@H]2[C@@H]3C=CC4=CC(=O)CC[C@@]4(C)[C@@H]3CC[C@]12C [DYDROGESTERONE] | > 30 | – |
| CC(=O)O[C@H]1Cc2ccccc2N(C(N)=O)c2ccccc21 [ESLICARBAZEPINE ACETATE] | > 30 | – |
| C[C@@H]1C[C@H]2[C@@H]3C[C@H](F)C4=CC(=O)C=C[C@]4(C)[C@@]3(F)[C@@H](O)C[C@]2(C)[C@@]1(OC(=O)c1ccco1)C(=O)SCF [FLUTICASONE FUROATE] | > 30 | AC50 [3]: > 10 µM; AC50 [4]: > 10 µM; AC50 [5]: > 10 µM; AC50 [6]: > 10 µM; AC50 [7]: > 10 µM; AC50 [2]: > 30 µM; AC50 [8]: > 10 µM; AC50 (Mu-type opioid receptor): > 30 µM |
| Cc1ccc(S(=O)(=O)NC(=O)NC2CCCCC2)cc1 [GLYCYCLAMIDE] | > 30 | – |
| CN1CCCN(C(c2ccccc2)c2ccc(Cl)cc2)CC1 (configuration not stated) [HOMOCHLORCYCLIZINE] | > 30 | – |
| CC(=O)OCC(=O)[C@@]1(O)CC[C@H]2[C@@H]3CCC4=CC(=O)CC[C@]4(C)[C@H]3[C@@H](O)C[C@@]21C [HYDROCORTISONE ACETATE] | > 30 | – |
| CC(COc1ccccc1)NC(C)C(O)c1ccc(O)cc1 (configuration not stated) [ISOXSUPRINE] | > 30 | – |

| Structure (SMILES) | AC50 [1] [µM] | further results |
| --- | --- | --- |
| O=C(CCC/C=C\C[C@@H]1[C@@H](CC[C@@H](O)CCc2ccccc2)[C@H](O)C[C@@H]1O)OCCCCO[N+](=O)[O-] [LATANOPROSTENE BUNOD] | > 30 | – |
| Cc1oc(=O)oc1COC(=O)[C@@H]1N2C(=O)[C@@H](NC(=O)[C@H](N)c3ccccc3)[C@H]2SC1(C)C [LENAMPICILLIN] | > 30 | – |
| COc1ccc(OC)c(C(O)C(C)N)c1 (configuration not stated) [METHOXAMINE] | > 30 | – |
| CC1(CCN2CCCCC2)C(=O)CCc2ccccc21 (configuration not stated) [NEPINALONE] | > 30 | – |
| COC(=O)C[C@](O)(CCCC(C)(C)O)C(=O)O[C@@H]1C(OC)=C[C@]23CCCN2CCc2cc4c(cc2[C@H]13)OCO4 [OMACETAXINE MEPESUCCINATE] | > 30 | – |
| COc1cccc(C(=O)CCN[C@@H](C)[C@H](O)c2ccccc2)c1 [OXYFEDRINE] | > 30 | – |
| CC[N+](C)(CC)CCOC(=O)C(O)(c1ccccc1)C1CCCCC1 (configuration not stated) [OXYPHENONIUM] | > 30 | – |
| C[C@@H]1C[C@H]2[C@@H]3C[C@H](F)C4=CC(=O)C=C[C@]4(C)[C@H]3[C@@H](O)C[C@]2(C)[C@@]1(O)C(=O)CO [PARAMETHASONE] | > 30 | – |
| CCC[C@H](N[C@@H](C)C(=O)N1[C@H](C(=O)O)C[C@@H]2CCCC[C@@H]21)C(=O)OCC [PERINDOPRIL] | > 30 | – |
| N[C@@H](Cc1ccccc1)C(=O)O [PHENYLALANINE] | > 30 | – |
| CCCn1cnc2c1c(=O)n(CCCCC(C)=O)c(=O)n2C [PROPENTOFYLLINE] | > 30 | – |
| Clc1ccc(C(Cn2ccnc2)OCc2csc3c(Cl)cccc23)c(Cl)c1 (configuration not stated) [SERTACONAZOLE] | > 30 | – |
| CC(OCCN1CCCCCC1)(c1ccccc1)c1ccc(Cl)cc1 (configuration not stated) [SETASTINE] | > 30 | – |
| COc1cc(C)c2c(Oc3cccc(C(F)(F)F)c3)c(OC)cc(NC(C)CCCN)c2n1 (configuration not stated) [TAFENOQUINE] | > 3 | – |
| CCCSc1nc(N[C@@H]2C[C@H]2c2ccc(F)c(F)c2)c2nnn([C@@H]3C[C@H](OCCO)[C@@H](O)[C@H]3O)c2n1 [TICAGRELOR] | > 30 | – |
| c1ccc2c(SC3=NCCN3)c[nH]c2c1 [TINAZOLINE] | > 30 | – |
